The source of these data is ChEMBL document CHEMBL5209581, “Membrane potential based assay for SLC6A5 using HEK-293 SLC6A5 OE cells” (2022).

This test has as its target T1, Sodium- and chloride-dependent glycine transporter 2 (Homo sapiens, UniProt Q9Y345).
T1 sequence (Q9Y345 whole entry): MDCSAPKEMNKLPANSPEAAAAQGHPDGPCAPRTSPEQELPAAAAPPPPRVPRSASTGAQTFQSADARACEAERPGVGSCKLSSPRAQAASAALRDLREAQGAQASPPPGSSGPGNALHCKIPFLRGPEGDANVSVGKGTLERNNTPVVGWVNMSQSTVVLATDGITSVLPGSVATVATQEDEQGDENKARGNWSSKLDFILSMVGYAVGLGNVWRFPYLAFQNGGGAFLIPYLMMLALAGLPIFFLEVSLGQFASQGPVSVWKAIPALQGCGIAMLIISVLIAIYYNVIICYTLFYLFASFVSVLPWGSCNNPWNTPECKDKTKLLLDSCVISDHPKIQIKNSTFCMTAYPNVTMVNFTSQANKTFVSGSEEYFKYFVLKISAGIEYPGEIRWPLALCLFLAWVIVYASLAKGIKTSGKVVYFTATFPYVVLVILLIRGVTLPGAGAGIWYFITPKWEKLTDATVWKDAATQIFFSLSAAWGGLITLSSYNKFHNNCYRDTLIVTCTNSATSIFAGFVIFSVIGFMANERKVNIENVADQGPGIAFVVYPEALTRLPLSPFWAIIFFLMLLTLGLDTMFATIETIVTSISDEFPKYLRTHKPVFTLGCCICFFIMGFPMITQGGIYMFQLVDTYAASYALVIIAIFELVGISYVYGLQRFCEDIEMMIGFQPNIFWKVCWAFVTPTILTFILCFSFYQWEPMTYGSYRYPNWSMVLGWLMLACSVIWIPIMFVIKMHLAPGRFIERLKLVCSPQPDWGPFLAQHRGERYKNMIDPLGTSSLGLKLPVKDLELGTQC
Description: Substrate uptake by the Glycine Transporter-2 (GlyT2, SLC6A5) as assessed by the fluorescent FLIPR membrane potential dye in HEK-293 JumpIN-SLC6A5 cells (PubChem AID: 1794825)

Take `NCC(=O)O` [GLYCINE]: the response was half-maximal at 128 µM (EC50).
